Experimental data taken from the RepoRT retention time repository (doi:10.1016/j.jchromb.2020.122105).

Key:
Conditions in all cases: stereoisomer not certain
[1] = RP, Waters CORTECS T3, 100 × 2.1 mm, 2.7 µm, 0.3 mL/min, estimated dead time 0.73 min; A: water + 0.1% formic acid, pH 3; B: methanol + 0.1% formic acid, pH 3; gradient (min/%B) 0/0 5/0 25/100 30/100 30.1/0 35/0
[2] = RP, Waters CORTECS T3, 100 × 2.1 mm, 2.7 µm, 0.2 mL/min, estimated dead time 1.1 min; A: water + 0.1% formic acid, pH 3; B: methanol + 0.1% formic acid, pH 3; gradient (min/%B) 0/0 1/0 6/5 30/100 35/100 35.1/0 40/0
[3] = RP, Waters CORTECS T3, 100 × 2.1 mm, 2.7 µm, 0.2 mL/min, estimated dead time 1.1 min; A: water + 0.1% formic acid, pH 3; B: methanol + 0.1% formic acid, pH 3; gradient (min/%B) 0/5 5/5 25/95 25.1/100 35/100 35.1/5 45/5
[4] = RP, Waters ACQUITY UPLC BEH C18, 100 × 2.1 mm, 1.7 µm, 0.2 mL/min, estimated dead time 1.1 min; A: water + 0.1% formic acid, pH 3; B: methanol + 0.1% formic acid, pH 3; gradient (min/%B) 0/5 5/5 25/100 30/100 30.1/5 35/5
[5] = RP, Waters ACQUITY UPLC BEH C18, 100 × 2.1 mm, 1.7 µm, 0.1 mL/min, estimated dead time 2.2 min; A: water + 0.1% formic acid, pH 3; B: methanol + 0.1% formic acid, pH 3; gradient (min/%B) 0/5 5/5 25/95 25.1/100 35/100 35.1/5 45/5
[6] = HILIC, Merck SeQuant ZIC-HILIC, 150 × 2.1 mm, 5 µm, 0.75 mL/min, estimated dead time 0.44 min; A: water + 10 mM ammonium formate, pH 6; B: 5% water + 95% acetonitrile + 10 mM ammonium formate, pH 6; gradient (min/%B) 0/95 5/95 20/57 25/57 30/95 40/95
[7] = HILIC, Merck SeQuant ZIC-HILIC, 150 × 2.1 mm, 5 µm, 0.75 mL/min, estimated dead time 0.44 min; A: water + 0.1% acetic acid + 10 mM ammonium acetate, pH 4; B: 5% water + 95% acetonitrile + 0.1% acetic acid + 10 mM ammonium acetate, pH 4; gradient (min/%B) 0/95 5/95 20/57 25/57 30/95 40/95
[8] = RP, Waters CORTECS T3, 100 × 2.1 mm, 2.7 µm, 0.25 mL/min, estimated dead time 0.88 min; A: water + 0.1% formic acid, pH 3; B: methanol + 0.1% formic acid, pH 3; gradient (min/%B) 0/5 5/5 25/95 25.1/100 35/100 35.1/5 45/5
[9] = HILIC, Waters XBridge BEH Amide, 100 × 2.1 mm, 2.5 µm, 0.5 mL/min, estimated dead time 0.44 min; A: water + 0.1% acetic acid + 10 mM ammonium acetate, pH 4; B: 5% water + 95% acetonitrile + 0.1% acetic acid + 10 mM ammonium acetate, pH 4; gradient (min/%B) 0/95 5/95 20/57 25/57 30/95 40/95
[10] = RP, Waters CORTECS T3, 100 × 2.1 mm, 2.7 µm, 0.2 mL/min, estimated dead time 1.1 min; A: water + 0.045% formic acid + 0.11% ammonium hydroxide, pH 7; B: methanol; gradient (min/%B) 0/5 5/5 25/95 25.1/100 35/100 35.1/5 45/5
[11] = RP, Waters ACQUITY UPLC BEH C18, 100 × 2.1 mm, 1.7 µm, 0.1 mL/min, estimated dead time 2.2 min; A: water + 0.045% formic acid + 0.11% ammonium hydroxide, pH 7; B: methanol; gradient (min/%B) 0/5 5/5 25/95 25.1/100 35/100 35.1/5 45/5
[12] = RP, Thermo Scientific Hypercarb, 150 × 2.1 mm, 5 µm, 0.1 mL/min, estimated dead time 3.3 min; A: water + 0.1% formic acid, pH 3; B: methanol + 0.1% formic acid, pH 3; gradient (min/%B) 0/5 5/5 20/100 35/100 35.1/5 45/5
[13] = RP, Waters CORTECS T3, 100 × 2.1 mm, 2.7 µm, 0.2 mL/min, estimated dead time 1.1 min; A: water + 0.1% formic acid, pH 3; B: methanol + 0.1% formic acid, pH 3; gradient (min/%B) 0/0 1/0 6/5 30/100 35/100 35.1/0 40/0; remark: listed apart in the source
[14] = RP, Waters CORTECS T3, 100 × 2.1 mm, 2.7 µm, 0.25 mL/min, estimated dead time 0.88 min; A: water + 0.1% formic acid, pH 3; B: methanol + 0.1% formic acid, pH 3; gradient (min/%B) 0/0 1/0 6/5 30/100 35/100 35.1/0 40/0
[15] = RP, Waters CORTECS T3, 100 × 2.1 mm, 2.7 µm, 0.3 mL/min, estimated dead time 0.73 min; A: water + 0.1% formic acid, pH 3; B: methanol + 0.1% formic acid, pH 3; gradient (min/%B) 0/5 5/5 25/95 25.1/100 35/100 35.1/5 45/5
[16] = RP, Waters ACQUITY UPLC BEH C18, 100 × 2.1 mm, 1.7 µm, 0.1 mL/min, estimated dead time 2.2 min; A: water + 0.1% formic acid, pH 3; B: methanol + 0.1% formic acid, pH 3; gradient (min/%B) 0/5 5/5 25/100 30/100 30.1/5 35/5
[17] = RP, Waters CORTECS T3, 100 × 2.1 mm, 2.7 µm, 0.3 mL/min, estimated dead time 0.73 min; A: water + 0.1% formic acid, pH 3; B: methanol + 0.1% formic acid, pH 3; gradient (min/%B) 0/5 5/5 25/100 30/100 30.1/5 35/5
[18] = RP, Waters CORTECS T3, 100 × 2.1 mm, 2.7 µm, 0.1 mL/min, estimated dead time 2.2 min; A: water + 0.1% formic acid, pH 3; B: methanol + 0.1% formic acid, pH 3; gradient (min/%B) 0/5 5/5 25/95 25.1/100 35/100 35.1/5 45/5
[19] = RP, Waters ACQUITY UPLC BEH C18, 100 × 2.1 mm, 1.7 µm, 0.2 mL/min, estimated dead time 1.1 min; A: water + 0.025% formic acid + 20 mM ammonium acetate + 0.055% ammonium hydroxide, pH 7; B: methanol; gradient (min/%B) 0/5 5/5 25/100 30/100 30.1/5 35/5
[20] = RP, Waters CORTECS T3, 100 × 2.1 mm, 2.7 µm, 0.3 mL/min, estimated dead time 0.73 min; A: water + 0.1% formic acid, pH 3; B: methanol + 0.1% formic acid, pH 3; gradient (min/%B) 0/0 1/0 6/5 30/100 35/100 35.1/0 40/0
[21] = RP, Waters CORTECS T3, 100 × 2.1 mm, 2.7 µm, 0.3 mL/min, estimated dead time 0.73 min; A: water + 0.1% formic acid, pH 3; B: methanol + 0.1% formic acid, pH 3; gradient (min/%B) 0/0 5/0 25/100 30/100 30.1/0 35/0; remark: listed apart in the source
[22] = RP, Waters CORTECS T3, 100 × 2.1 mm, 2.7 µm, 0.1 mL/min, estimated dead time 2.2 min; A: water + 0.1% formic acid, pH 3; B: methanol + 0.1% formic acid, pH 3; gradient (min/%B) 0/0 1/0 6/5 30/100 35/100 35.1/0 40/0
[23] = RP, Waters CORTECS T3, 100 × 2.1 mm, 2.7 µm, 0.15 mL/min, estimated dead time 1.5 min; A: water + 0.1% formic acid, pH 3; B: methanol + 0.1% formic acid, pH 3; gradient (min/%B) 0/0 1/0 6/5 30/100 35/100 35.1/0 40/0
[24] = RP, Waters CORTECS T3, 100 × 2.1 mm, 2.7 µm, 0.3 mL/min, estimated dead time 0.73 min; A: water + 0.1% formic acid, pH 3; B: methanol + 0.1% formic acid, pH 3; gradient (min/%B) 0/0 1/0 6/5 30/100 35/100 35.1/0 40/0; remark: listed apart in the source
[25] = RP, Waters ACQUITY UPLC BEH C18, 100 × 2.1 mm, 1.7 µm, 0.2 mL/min, estimated dead time 1.1 min; A: water + 0.025% formic acid + 20 mM ammonium acetate + 0.055% ammonium hydroxide, pH 7; B: methanol; gradient (min/%B) 0/5 5/5 25/100 30/100 30.1/5 35/5; remark: listed apart in the source

In the case of `O=C(O)C1(O)CC(O)C(O)C(O)C1` (stereo not given) [QUINATE], the LC retention time [1] is reported as 0.89 min, the LC retention time [2] is reported as 1.35 min and the LC retention time [3] is reported as 2.64 min. The LC retention time [4] was 1.38 min, the LC retention time [5] was 2.67 min and the LC retention time [6] was 12.3 min. It also gave an LC retention time [7] of 12.2 min.
For `OCC1OC(OCC2OC(OC3(CO)OC(CO)C(O)C3O)C(O)C(O)C2O)C(O)C(O)C1O` [D-(+)-RAFFINOSE], the LC retention time [3] was 2.67 min and the LC retention time [5] was 2.67 min.
For `CC(=O)NC(CC(N)=O)C(=O)O` [N-ALPHA-ACETYL-L-ASPARAGINE], the LC retention time [1] was 0.89 min, the LC retention time [2] was 1.35 min and the LC retention time [3] was 2.67 min. The LC retention time [4] was 1.38 min, the LC retention time [8] was 1.08 min and the LC retention time [5] was 2.7 min. It also gave an LC retention time [7] of 11.8 min and an LC retention time [9] of 12.1 min.
`O=C([O-])[C@H](O)[C@@H](O)[C@H](O)[C@H](O)CO` [D-GLUCONATE] showed an LC retention time [3] of 2.58 min, an LC retention time [6] of 13 min and an LC retention time [7] of 12.9 min. For the same compound, the LC retention time [9] was 17 min.
`C=CC1=C(C)C(=Cc2[nH]c(Cc3[nH]c(C=C4NC(=O)C(C)=C4C=C)c(C)c3CCC(=O)O)c(CCC(=O)O)c2C)NC1=O` [BILIRUBIN] showed an LC retention time [10] of 24.4 min, an LC retention time [11] of 26.9 min and an LC retention time [6] of 1.06 min. The LC retention time [7] was 1.32 min.
For `CCCCCCCCCCCCCCCC(=O)OCC(COP(=O)(O)OCCN)OC(=O)CCCCCCCCCCCCCCC` (racemic) [1,2-DIPALMITOYL-RAC-GLYCERO-3-PHOSPHOETHANOLAMINE], the LC retention time [10] was 28.7 min, the LC retention time [11] was 36.9 min and the LC retention time [6] was 7.77 min. For the same compound, the LC retention time [9] was 6.05 min.
Compound `N[C@@H](CS(=O)(=O)O)C(=O)O` [L-CYSTEIC ACID] has an LC retention time [3] of 2.49 min, an LC retention time [12] of 19.4 min and an LC retention time [6] of 13.4 min. The LC retention time [7] was 13.4 min and the LC retention time [9] was 13.4 min.
With `Nc1ncnc2c1ncn2[C@@H]1O[C@H](CSCC[C@H]([NH3+])C(=O)[O-])[C@@H](O)[C@H]1O` [S-(5'-ADENOSYL)-L-HOMOCYSTEINE] the LC retention time [13] was 1.34 min, the LC retention time [14] was 1.09 min and the LC retention time [3] was 2.67 min. It also gave an LC retention time [15] of 0.9 min, an LC retention time [4] of 1.38 min and an LC retention time [16] of 2.74 min. For the same compound, the LC retention time [5] was 2.67 min and the LC retention time [7] was 12.3 min.
For `NC(C(=O)O)C(O)C(O)C(O)CO` (stereo not given) [GLUCOSAMINATE], the LC retention time [3] was 2.45 min, the LC retention time [12] was 4.77 min and the LC retention time [6] was 14.3 min. For the same compound, the LC retention time [7] was 14.2 min and the LC retention time [9] was 14.7 min.
For `O=c1[nH]cnc2nc[nH]c12` [HYPOXANTHINE], the LC retention time [17] was 1.33 min, the LC retention time [18] was 2.72 min and the LC retention time [16] was 2.8 min. The LC retention time [19] was 1.38 min, the LC retention time [6] was 3.94 min and the LC retention time [9] was 3.97 min.
For `O=c1ccn(C2OC(COP(=O)(O)O)C(O)C2O)c(=O)[nH]1` (stereo not given) [URIDINE-5-MONOPHOSPHATE], the LC retention time [1] was 0.89 min, the LC retention time [2] was 1.35 min and the LC retention time [20] was 0.92 min. For the same compound, the LC retention time [3] was 2.67 min, the LC retention time [8] was 1.08 min and the LC retention time [5] was 2.7 min. It also gave an LC retention time [7] of 13.6 min and an LC retention time [9] of 14 min.
`NCCS(=O)(=O)O` [TAURINE] showed an LC retention time [3] of 2.48 min, an LC retention time [6] of 12.3 min and an LC retention time [7] of 12 min. For the same compound, the LC retention time [9] was 11.4 min.
For `COc1ccc2[nH]cc(CCNC(C)=O)c2c1` [MELATONIN], the LC retention time [17] was 12.8 min, the LC retention time [21] was 13.6 min and the LC retention time [13] was 16.2 min. For the same compound, the LC retention time [22] was 14.4 min, the LC retention time [23] was 17.5 min and the LC retention time [24] was 14.8 min. It also gave an LC retention time [14] of 15.4 min, an LC retention time [18] of 17.7 min and an LC retention time [15] of 13.1 min. It also gave an LC retention time [16] of 17.6 min, an LC retention time [10] of 14.5 min and an LC retention time [11] of 17.8 min. The LC retention time [19] was 14.4 min, the LC retention time [25] was 14.4 min and the LC retention time [9] was 0.63 min.
